Measured values: patent US9896470B2, “Enhancing the stability and purity and increasing the bioavailability of human milk oligosaccharides or precursors or blends thereof” (Glycom A/S, priority 2012, dated 2018)

Columns and labels:
Type in all cases: physicochemical
[1] = Calorimetric (DSC) determination of glass transition temperature of the amorphous samples; conditions: for Tg (glass transition temperature): Perkin Elmer DSC-7, heating rate 10° C./min, spray-dried amorphous sample; for storage temperature limit suggested by Tg: spray-dried amorphous material
Description: The calorimetric experiments to determine the glass transition temperature of the amorphous samples were carried out using Perkin Elmer DSC-7 at a heating rate of 10° C./min; the samples (5-7 mg) were placed in open aluminium crucibles.

[2] = Stability test after two months (40° C., rel. humidity 75%)
Description: 75% of the methanol present in the feed solution was removed. […] Tg: 83.9° C.

[3] = Shelf life of spray-dried material on storage; conditions: below 40° C. storage temperature

SMILES | Tg (glass transition temperature) [1] [°C] | storage temperature limit suggested by Tg [1] | stability test: changes in analytical data and powder X-ray diagram [2] | shelf life [3]
CC(=O)N[C@H]1[C@H](O[C@H]2[C@@H](O)[C@@H](CO)O[C@@H](O[C@H]3[C@H](O)[C@@H](O)C(O)O[C@@H]3CO)[C@@H]2O)O[C@H](CO)[C@@H](O[C@@H]2O[C@H](CO)[C@H](O)[C@H](O)[C@H]2O)[C@@H]1O (mixture of isomers) [spray-dried LNnT, Lacto-N-neotetraose] | 81.6 | around 60 °C | no changes in the analytical data and powder X-ray diagram | excellent shelf life
C[C@@H]1OC(O[C@H]2[C@H](O[C@H]3[C@H](O)[C@@H](O)C(O)O[C@@H]3CO)O[C@H](CO)[C@H](O)[C@@H]2O)[C@@H](O)[C@H](O)[C@@H]1O (some centres unmarked) [spray-dried 2′-FL, 2′-O-fucosyllactose] | 83.9 | around 60 °C | no changes in the analytical data and powder X-ray diagram | excellent shelf life
CC(=O)N[C@H]1[C@H]([C@H](O)[C@H](O)CO)O[C@@](OC[C@H]2O[C@@H](O[C@H]3[C@H](O)[C@@H](O)[C@H](O)O[C@@H]3CO)[C@H](O)[C@@H](O)[C@H]2O)(C(=O)O)C[C@@H]1O [spray-dried 6′-SL, 6′-O-sialyllactose] | 84.0 | around 60 °C |  | excellent shelf life
